The results in this text go back to patent US10745383B2, “1,3,5-triazine derivative and method of using same” (CHIA TAI TIANQING PHARMACEUTICAL GROUP CO., LTD., priority 2015, dated 2020).

Series [1] in a line: Pharmacokinetic parameters in rats after a single intragastric dose. It counts as in vivo. To be noted: for AUC(0-inf) / Cmax / Tmax / half-life: rat, po, male rats, intragastric, single dose 5 mg/kg, plasma. On the procedure: Healthy male adult rats (7-9 weeks old) were used in this study. Each group of animals (3 male rats) was intragastrically administered once at a single dose of 5 mg/kg. The animals in the intragastric administration group were fasted overnight before this study. The fasting time period was from 10 hours before administration to 4 hours after administration.
Blood samples were taken at 0.25, 0.5, 1, 2, 4, 6, 8 and 24 h after administration. The animals were anesthetized with isoflurane using an animal anesthesia machine, and then 0.3 mL whole blood samples were taken from the fundus venous plexus. The blood samples were placed in heparin anticoagulant tubes, and centrifuged for 5 min at 4° C. and 4000 rpm. The resulting plasmas were transferred to centrifuge tubes, and stored at −80° C. until analysis.
Verified LC-MS/MS method was used to analyze the plasma samples. Plasma concentration-time data of animals were analyzed using WinNonlin (Professional Edition, version 6.3; Pharsight Company) software. The non-compartmental model was introduced for concentration analysis. The pharmacokinetic parameters of the compounds were calculated.

In a further series the target is IDH2 (R172K, 40-end) (Homo sapiens (Human), UniProt P48735, R172K). Put plainly: IDH2 inhibitory activity determined by decrease of NADPH (diaphorase/resazurin fluorescence). It counts as biochemical. To be noted: 120 min pre-incubation with enzyme and NADPH, 120 min reaction with α-KG. On the procedure:
The inhibitory activity of the compounds of the present application against IDH2 (R172K, 40-end) was determined by using the following method, which was expressed as IC50 values, i.e., the concentrations of the compounds required to achieve 50% inhibition of IDH2 activity.
The inhibitory activity of a compound against IDH2 (R172K, 40-end) was determined by the decrease of a helper factor NADPH. The test compound was pre-incubated with an enzyme and NADPH, and then a reaction was initiated by the addition of α-KG, and performed for 120 minutes under a linear condition. Then, the reaction was terminated by the addition of diaphorase (lipoamide dehydrogenase) and the corresponding substrate resazurin. Diaphorase terminated the IDH2m reaction by decreasing the available helper factor NADPH, which oxidized NADPH to NADP, and reduced resazurin to highly fluorescent resorufin. The amount of remaining helper factor NADPH after a specific reaction time was quantified via an easily detectable fluorophore.
Specifically, 2.5 μl of a 3-fold gradient diluted test compound was added to a 384-well plate, and then 5 μl of a reaction buffer (20 mM Tris-HCl, PH7.5; 150 mM NaCl; 10 mM MgCl2; 10 mM MnCl2; 0.4 mg/ml BSA and 2 mM DTT) containing 80 nM IDH2 (R172K, 40-end) and 40 μM NADPH was added. Then, the resulting test mixture was incubated for 120 minutes at a temperature of 23° C., and then 2.5 μl of the reaction buffer containing 4 mM α-KG was added to initiate the reaction. After incubating for 120 minutes at room temperature, 5 μl of a termination mixture (0.4 U/ml diaphorase and 40 μM resazurin) prepared with the reaction buffer was added to convert resazurin to resorufin to determine the remaining NADPH. After incubating for 10 minutes at a temperature of 23° C., a fluorescence value was determined through Flexstation 3 at Ex535/Em595.

Setting [2] is: rats, same dose (5 mg/kg intragastric).

IDH2 (R172K, 40-end), sequence (P48735 40-452 R172K): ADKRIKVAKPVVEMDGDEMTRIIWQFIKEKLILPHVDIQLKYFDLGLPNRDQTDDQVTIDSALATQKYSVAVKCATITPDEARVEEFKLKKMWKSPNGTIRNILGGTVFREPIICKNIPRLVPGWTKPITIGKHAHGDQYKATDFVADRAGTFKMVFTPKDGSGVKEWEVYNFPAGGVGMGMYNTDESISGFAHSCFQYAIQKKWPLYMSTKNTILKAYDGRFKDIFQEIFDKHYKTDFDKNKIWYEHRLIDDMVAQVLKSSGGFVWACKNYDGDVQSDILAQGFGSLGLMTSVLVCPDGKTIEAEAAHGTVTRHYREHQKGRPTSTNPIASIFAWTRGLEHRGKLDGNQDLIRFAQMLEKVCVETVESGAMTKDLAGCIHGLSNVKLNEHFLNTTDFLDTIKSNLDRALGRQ

Broadly, the AUC(0-inf) is total exposure, with the tail of the curve extrapolated. A word on the Cmax: it is the maximum level reached in the sampled fluid or tissue. Usually Tmax stands for the time at which the peak concentration occurs. One may read the half-life as how long it takes for the measured level to halve. A high value points to slow decline. Take `CC(C)(O)CNc1nc(Nc2ccnc(C(F)(F)F)c2)nc(-c2cccc(C(F)(F)F)n2)n1` [AG-221, reference compound]: in series [1], the AUC(0-inf) is 5380 ng·h/mL, the Cmax came to 479 ng/mL, the Tmax came out at 4 h and the half-life is 224 min.
The IC50 is the concentration at which inhibition is half-maximal. High values mean weaker potency, low ones greater potency. `CCONc1nc(Nc2ccnc(C(F)(F)F)c2)nc(-c2cccc(C(F)(F)F)n2)n1` [Example 1, 4-(ethoxyamino)-6-(6-(trifluoromethyl)pyridin-2-yl)-N-(2-(trifluoromethyl)pyridin-4-yl)-1,3,5-triazin-2-amine] yielded an IC50 at IDH2 (R172K, 40-end) of 22.4 nM.
Take `CC(C)(C)ONc1nc(Nc2ccnc(C(F)(F)F)c2)nc(-c2cccc(C(F)(F)F)n2)n1` [Example 3, 4-(tert-butoxyamino)-6-(6-(trifluoromethyl)pyridin-2-yl)-N-(2-(trifluoromethyl)pyridin-4-yl)-1,3,5-triazin-2-amine]: in series [1], the AUC(0-inf) came to 10800 ng·h/mL, the Cmax is 589 ng/mL, the Tmax is 5 h and the half-life is 720 min. Moreover, in series [1] (setting [2]), the “half-life compared with AG-221” value is given as “longer half-life”, the “metabolism in vivo compared with AG-221” value is “better metabolism in vivo” and the “plasma concentration compared with AG-221” value is recorded as “higher plasma concentration”. The same molecule displayed an IC50 against IDH2 (R172K, 40-end) of 31.7 nM.
As for `FC(F)(F)c1cc(Nc2nc(NOCC3CC3)nc(-c3cccc(C(F)(F)F)n3)n2)ccn1` [Example 4, 4-((cyclopropylmethoxy)amino)-6-(6-(trifluoromethyl)pyridin-2-yl)-N-(2-(trifluoromethyl)pyridin-4-yl)-1,3,5-triazin-2-amine], on IDH2 (R172K, 40-end), the IC50 came to 38.2 nM.
On the same count and under the same terms, to `CC(C)(O)CONc1nc(Nc2ccnc(C(F)(F)F)c2)nc(-c2cccc(C(F)(F)F)n2)n1` [Example 6, 2-methyl-1-(((4-(6-(trifluoromethyl)pyridin-2-yl)-6-((2-(trifluoromethyl)pyridin-4-yl)amino)-1,3,5-triazin-2-yl)amino)oxy)propan-2-ol] belongs 46.9 nM; to `CC(C)(CO)ONc1nc(Nc2ccnc(C(F)(F)F)c2)nc(-c2cccc(C(F)(F)F)n2)n1` [Example 7, 2-methyl-2-(((4-(6-(trifluoromethyl)pyridin-2-yl)-6-((2-(trifluoromethyl)pyridin-4-yl)amino)-1,3,5-triazin-2-yl)amino)oxy)propan-1-ol], 154 nM.
Still for that read-out and setting: to `FC(F)(F)c1cc(Nc2nc(NOCc3ccccc3)nc(-c3cccc(C(F)(F)F)n3)n2)ccn1` [Example 8, 4-((benzyloxy)amino)-6-(6-(trifluoromethyl)pyridin-2-yl)-N-(2-(trifluoromethyl)pyridin-4-yl)-1,3,5-triazin-2-amine] belongs 239 nM; to `CC(C)(C)ONc1nc(Nc2ccnc(C(F)(F)F)c2)nc(-c2ccccc2)n1` [Example 10, 4-(tert-butoxyamino)-6-phenyl-N-(2-(trifluoromethyl)pyridin-4-yl)-1,3,5-triazin-2-amine], 51.4 nM.
